Measured values as given in ChEMBL document CHEMBL1157596, “Colony stimulating factor-1 receptor as a target for small molecule inhibitors” (Bioorg Med Chem, 2010).

Key:
Format in all cases: cell-based
Set-up in all cases: scale not given: the % may be the effect or the level left
[1] = target: Macrophage colony-stimulating factor 1 receptor (Homo sapiens) (UniProt P07333); experiment: Inhibition of CSF1-stimulated human FMS autophosphorylation expressed in growth factor dependent mouse FDC-P1 cells assessed as phosphorylated receptor level at 5 nM relative to control by Western blot
Sequence of Macrophage colony-stimulating factor 1 receptor (Homo sapiens) (P07333 whole entry): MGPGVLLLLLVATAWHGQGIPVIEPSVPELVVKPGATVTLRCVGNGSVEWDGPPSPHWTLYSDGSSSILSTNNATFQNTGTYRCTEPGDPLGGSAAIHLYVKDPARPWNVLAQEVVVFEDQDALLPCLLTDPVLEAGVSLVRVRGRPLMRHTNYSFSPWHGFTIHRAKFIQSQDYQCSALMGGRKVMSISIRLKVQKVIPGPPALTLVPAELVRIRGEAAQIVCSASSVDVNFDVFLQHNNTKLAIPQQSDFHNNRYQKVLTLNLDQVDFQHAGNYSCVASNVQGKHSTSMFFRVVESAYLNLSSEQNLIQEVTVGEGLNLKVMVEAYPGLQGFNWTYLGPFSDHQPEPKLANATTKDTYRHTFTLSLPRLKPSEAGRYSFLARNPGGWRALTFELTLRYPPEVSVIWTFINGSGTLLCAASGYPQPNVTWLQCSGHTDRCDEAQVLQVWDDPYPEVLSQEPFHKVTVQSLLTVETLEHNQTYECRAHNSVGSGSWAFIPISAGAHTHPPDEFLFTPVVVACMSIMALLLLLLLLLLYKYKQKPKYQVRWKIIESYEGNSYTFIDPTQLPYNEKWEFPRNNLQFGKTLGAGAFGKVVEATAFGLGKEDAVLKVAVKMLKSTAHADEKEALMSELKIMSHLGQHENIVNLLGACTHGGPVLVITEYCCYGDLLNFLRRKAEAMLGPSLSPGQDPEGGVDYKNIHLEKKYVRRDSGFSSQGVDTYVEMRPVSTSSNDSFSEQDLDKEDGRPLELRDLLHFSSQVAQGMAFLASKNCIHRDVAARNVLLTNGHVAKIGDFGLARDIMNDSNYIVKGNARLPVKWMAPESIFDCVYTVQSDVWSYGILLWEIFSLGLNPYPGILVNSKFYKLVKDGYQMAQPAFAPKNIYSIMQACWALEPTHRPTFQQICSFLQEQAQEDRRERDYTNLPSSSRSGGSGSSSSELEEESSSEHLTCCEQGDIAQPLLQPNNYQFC

[2] = target: Macrophage colony-stimulating factor 1 receptor (Homo sapiens) (UniProt P07333); experiment: Inhibition of CSF1-stimulated human FMS autophosphorylation expressed in growth factor dependent mouse FDC-P1 cells assessed as phosphorylated receptor level at 50 nM relative to control by Western blot
[3] = target: Macrophage colony-stimulating factor 1 receptor (Homo sapiens) (UniProt P07333); experiment: Inhibition of CSF1-stimulated human FMS autophosphorylation expressed in growth factor dependent mouse FDC-P1 cells assessed as phosphorylated receptor level at 500 nM relative to control by Western blot
[4] = target: Macrophage colony-stimulating factor 1 receptor (Homo sapiens) (UniProt P07333); experiment: Inhibition of CSF1-stimulated human FMS autophosphorylation expressed in growth factor dependent mouse FDC-P1 cells assessed as phosphorylated receptor level at 1 nM relative to control by Western blot
[5] = target: Macrophage colony-stimulating factor 1 receptor (Homo sapiens) (UniProt P07333); experiment: Inhibition of CSF1-stimulated human FMS autophosphorylation expressed in growth factor dependent mouse FDC-P1 cells assessed as phosphorylated receptor level at 31 nM relative to control by Western blot
[6] = target: Macrophage colony-stimulating factor 1 receptor (Homo sapiens) (UniProt P07333); experiment: Inhibition of CSF1-stimulated human FMS autophosphorylation expressed in growth factor dependent mouse FDC-P1 cells assessed as phosphorylated receptor level at 0.11 uM relative to control by Western blot
[7] = target: Macrophage colony-stimulating factor 1 receptor (Homo sapiens) (UniProt P07333); experiment: Inhibition of CSF1-stimulated human FMS autophosphorylation expressed in growth factor dependent mouse FDC-P1 cells assessed as phosphorylated receptor level at 10 uM relative to control by Western blot
[8] = target: Macrophage colony-stimulating factor 1 receptor (Homo sapiens) (UniProt P07333); experiment: Inhibition of CSF1-stimulated human FMS autophosphorylation expressed in growth factor dependent mouse FDC-P1 cells assessed as phosphorylated receptor level at 3.3 uM relative to control by Western blot
[9] = target: Macrophage colony-stimulating factor 1 receptor (Homo sapiens) (UniProt P07333); experiment: Inhibition of CSF1-stimulated human FMS autophosphorylation expressed in growth factor dependent mouse FDC-P1 cells assessed as phosphorylated receptor level at 1.1 uM relative to control by Western blot
[10] = target: Macrophage colony-stimulating factor 1 receptor (Homo sapiens) (UniProt P07333); experiment: Inhibition of CSF1-stimulated human FMS autophosphorylation expressed in growth factor dependent mouse FDC-P1 cells assessed as phosphorylated receptor level at 0.33 uM relative to control by Western blot

## CO[C@@H]1[C@H](N(C)C(=O)c2ccccc2)C[C@H]2O[C@]1(C)n1c3ccccc3c3c4c(c5c6ccccc6n2c5c31)C(=O)NC4
[1]
  Activity: 110%
[2]
  Activity: 21%
[3]
  Activity: 3%

## CCN(CC)CCNC(=O)c1c(C)[nH]c(/C=C2\C(=O)Nc3ccc(F)cc32)c1C
[4]
  Activity: 90%
[5]
  Activity: 37%
[3]
  Activity: 2%

## C[C@]12O[C@H](C[C@]1(O)CO)n1c3ccccc3c3c4c(c5c6ccccc6n2c5c31)CNC4=O
[4]
  Activity: 85%

## CN(C)S(=O)(=O)c1ccc2c(c1)/C(=C/c1cc3c([nH]1)CCCC3)C(=O)N2
[6]
  Activity: 104%
[7]
  Activity: 106%
[8]
  Activity: 97%
[9]
  Activity: 104%
[10]
  Activity: 109%
